Test results taken from patent publication US20090156471A1, “Use of anti-amyloid agents for treating and typing pathogen infections” (RAMOT AT TEL AVIV UNIVERSITY LTD., priority 2005, published 2009).
“Also recorded” adds a separate entry of the source.

Columns and labels:
[1] = TEM analysis of peptide self-assembly into fibrillar structures; assay type: physicochemical; conditions: for self-assembly / fibril formation observed by TEM: peptide in water 10 to 50 mg/ml, room temperature, 3-6 days (micrographs: 50 mg/ml, 1 week)
Experimental: TEM analysis—In all examined cases, peptides were dissolved in water to a concentration of 10 to 50 mg/ml and incubated at room-temperature (RT). Fresh stocks were prepared for each and every experiment. […] Following 1 minute, excess fluid was removed, and the grid was then negatively stained with 10 μl of 2% uranyl-acetate in water. Following 2 minutes, excess fluid was removed from the grid. Samples were viewed in JEOL 1200 EX transmission electron microscope. In the experiments shown, 50 mg/ml peptides were used and micrographs were taken following 1 week. Bar represents 100 nm.

[2] = tested on: curli-expressing E. coli XL1-Blue(pMRInv) binding to bovine fibronectin; experiment: Fibronectin binding (adhesion of bacteria to fibronectin coated wells); assay type: cell-based, Escherichia coli; conditions: 0.3 mM peptide, A405, FIG. 3b
Experimental: The adhesion of bacteria to fibronectin coated wells was determined by measuring absorbance at 405 nm. For (A) and (B), each column is the average of three experiments.
Fibronectin binding—Binding was quantified using the protocol described by Gophna et al (32). Briefly, wells of microtiter plates were coated with 100 μl of 5 μg/ml solution of bovine fibronectin (Sigma). The two strains of bacteria were grown to mid-exponential phase (A600, 0.5-0.6) with the various peptides in LB, harvested and suspended in saline. Wells were blocked with 200 μl milk (3%) for 2 hours at RT. Two hundreds micro-liter saline containing 5×10^8 cells/ml bacteria (A600, 0.9) were added to the wells with 0.3 mM of the suitable peptide and were incubated at RT for 3 h. Wells were washed twice with 200 μl PBS-T (0.05% Tween) and once with 200 μl PBS. The optical density of adherent bacteria was determined by the use of a microplate reader (ELISA) (A405), subtracting the optical density of an empty coated well.

[3] = tested on: curli-expressing E. coli K-12 XL1-Blue(pMRInv); experiment: Quantitative Congo red (CR) binding of curli expressing bacteria; conditions: 0.3 mM peptide, FIG. 3a
Experimental: Binding units represent the decrease in absorbance (A487) of the CR solution after incubation with bacteria.
Congo red binding—Bacterial inoculums were grown in 6 ml LB medium for 5-7 hours at 37° C. in the presence or absence of 0.3 mM peptide inhibitor, until the cultures reached A600 of approximately 1.2. Each culture was then pelleted (1 min/13200×g) and resuspended in 6 ml saline (0.8% NaCl). Three double dilutions were performed for each culture and bacterial concentrations were determined at A600. Each dilution was divided into 3 microtubes (1 ml for each) and pelleted by centrifugation for 2 min/13200×g. A 0.004% solution of CR (in saline) was prepared and optical density at 487 nm was measured against a saline background. One thousand, 500 and 200 μl of CR solution were then added to each dilution triplets, the bacteria were well resuspended in the dye and left for 10 min incubation at RT. Next, a second centrifugation (2 min/13200×g) was performed and the supernatants containing the remaining dye were recovered. The optical density at 487 nm of each supernatant was determined and compared to the initial absorbance.
Inhibition was examined by directly applying the putative peptide inhibitor at time zero to a growing culture in liquid medium at 37° C. Cells analyzed for CR binding when reached optical density (A600) of approximately 1.2 absorbance units (AU).

[4] = tested on: E. coli XL1-Blue(pMRInv) internalization into HEK293 cells; experiment: Internalization assay (antibiotic protection assay) in HEK293 cells; conditions: 0.4 mM peptide, HEK293, 3 h at 37° C., gentamicin protection
Experimental: Internalization assay—Epithelial cells were grown overnight in 24-well plates to 80% confluence (˜10^5 cells per well). Bacteria were inoculated in LB broth and grown at 37° C. for 16 h, diluted 100-fold, and grown to mid-exponential phase (A600, 0.4) in the presence or absence of 0.4 mM peptide inhibitor. Bacteria were then diluted to A600, 0.1 in LB and 20 μl were added to each well with epithelial monolayer for 3 h incubation at 37° C. […] Cells were washed once with PBS, pH 7.3, and PBS containing 100 μg/ml gentamicin was added. After 1.5 h incubation, the cells were washed twice in PBS, and lysed by 5 min incubation with ice-cold 0.5% triton X-100. Appropriate bacterial dilutions were plated to determine the number of viable internalized bacteria. E. coli XL1-Blue was maintained on Luria-Bertani (LB) agar and E. coli XL1-Blue(pMRInv) was maintained on LB agar containing 30 μg/ml kanamycin. […]
For that purpose, an antibiotic protection assay was effected using HEK293 cell-line. […] Following exposure to the antibiotic gentamicin, eukaryotic cells were analyzed for bacteria internalization rate by the determination of the colony forming units (cfu) of the surviving bacteria (FIG. 4a).

[5] = Circular dichroism (CD) spectra and copper binding
Experimental: FIGS. 2a-b are graphs showing copper binding to QHGGGN (SEQ ID NO: 5) peptide repeat. […] The titration of metal ions to the oligopeptide was performed using small aliquots from stock aqueous solutions of 25 mM CuCl2.2H2O. CD spectrum (250-800 nm) of QHGGGN (0.5 mM, pH 7.5) was measured with the addition of Cu^2+ in increments of 0.0125 mM (as a minimum) of CuCl2 (0.5 μl) from 0 up to 0.65 mM. Typically, 50 mM HEPES pH 7.5 buffer was used for CD studies. Spectra were obtained using an AVIV spectrapolarimeter and a 5 mm (FIG. 2a) and 10 mm (FIG. 2b) path length cuvettes.
Circular dichroism (CD) spectra and Copper binding—Circular Dichroism (CD) spectra, 250-800 nm, of the curli QHGGGN hexapeptide repeat in the absence and presence were preformed. […] The titration of metal ions to the oligopeptide was performed using small aliquots from stock aqueous solutions of 25 mM CuCl2-2H2O. CD spectrum (250-800 nm) of QHGGGN (0.5 mM, pH 7.5) was measured with the addition of Cu^2+ in increments of 0.0125 mM (as a minimum) of CuCl2 (0.5 μl) from 0 up to 0.65 mM. 50 mM HEPES pH 7.5 buffer was used for CD studies.

[6] = target: the molecule itself; experiment: TEM of peptide self-assembly

GQNHGG
self-assembly / fibril formation observed by TEM [1]: fibril-like structured

HGQGNG
aggregation potential (amount of aggregates) of scrambled QHGGGN sequences ([1]; TEM, FIG. 1c): highly aggregative and much more abundant
self-assembly / fibril formation observed by TEM [1]: amorphous aggregates

NHQGGG
self-assembly / fibril formation observed by TEM [1]: small amount but highly ordered assemblies

QAGGGN
bacterial adhesion to fibronectin coated wells [2]: no significant effect
binding of CR in comparison to XL1-Blue(pMRInv) grown in absence of peptide [3]: no significant difference
structures observed by TEM after prolonged incubation ([1]; following 30 days of incubation): only minor amounts of amorphous aggregates
self-assembly / fibril formation observed by TEM [1]: ability was lost; also recorded: no ordered structures could be detected

QFGGGN
bacterial adhesion to fibronectin coated wells [2]: no significant effect
binding of CR in comparison to XL1-Blue(pMRInv) grown in absence of peptide [3]: no significant difference
fibril formation in a mixture of QFGGGN and QAGGGN peptides ([1]; mixture with QAGGGN, 3-6 days incubation, TEM): not inhibited
self-assembly / fibril formation observed by TEM [1]: assembled into fibrillar structures
self-assembly / fibril formation observed by TEM ([1]; listed as NH2-QFGGGN-COOH): well-ordered fibrillar structures
amount of internalized bacteria (cfu) in eukaryotic cells [4]: did not interfere with bacterial invasion process

QHGGGN [curli hexapeptide repeat]
Cu^2+ binding stoichiometry ([5]; CD signal at 590 nm, peptide 0.5 mM, pH 7.5, 50 mM HEPES, CuCl2 0 up to 0.65 mM): equimolar binding stoichiometry; also recorded: single Cu^2+ ion binding for each peptide molecule
affinity of copper binding for a single repeat ([5]; binding curve sigmoid at concentrations in the hundreds of μM range): not high
fibrillization in the presence of copper ([1]; electron microscopy, 48 hours with equimolar CuCl2 in 50 mM HEPES, pH 7.5, room-temperature): did not induce fibrillization
self-assembly / fibril formation observed by TEM [1]: assembled into fibrillar structures
self-assembly / fibril formation observed by TEM ([1]; listed as NH2-QHGGGN-COOH): well-ordered fibrillar structures

B1: QHGGGN peptide (NH2-QHGGGN-COOH) (peptide)
peptide: H-QHGGGN-OH
notes: also called curli QHGGGN hexapeptide repeat
binding result [6]: binds

B2: QFGGGN peptide (NH2-QFGGGN-COOH) (peptide)
peptide: H-QFGGGN-OH
notes: also called curlin repeat; oligopeptide repeat QFGGGN
binding result [6]: binds
